Source: patent US20190160016A1, “Anti-Parasitic Compositions and Methods” (University of Canberra, priority 2016, published 2019)

How the values were obtained:
[1] = tested on: P. humanus capitis adults and nymphs; test: filter paper diffusion bioassay, pediculicidal activity; settings: mean individual louse survival time, in vitro pediculicidal treatment
From the text: Adults, nymphs, and nits of P. humanus capitis were collected from a population of children between the ages of 3 and 12, with the approval of their guardians, by raking a metal louse comb through sections of the scalp. Adult and nymph lice as well as nits (eggs) were obtained and pooled by carefully removing them from the metal teeth of the comb into clean plastic boxes. The children had not been treated with any pediculicide solution for at least the preceding month, using only the louse comb.
For testing the pediculicidal activity, a filter paper diffusion bioassay was made with adults and nymphs of the insect collected from heads no more than 4 hours before carrying out the assay. After careful selection under a dissecting microscope, 10 lice in a ratio of 8:2 adult:nymph III were placed on a filter paper disk (Whatman No 1; 9-cm diameter) on the lid of a Petri dish. Next, 0.5 ml of either (a) each test solution; (b) distilled water with Tween-20 (control); and (c) distilled water, Tween-20, and preserving agents (excipient control), were spread over the lice and filter paper for each group. The commercial lotions (containing tea tree oil and permethrin as chief active components) (0.5 ml) were simultaneously run as a positive controls. Three to nine replicates were conducted for each treatment. […] The number of dead lice were recorded for each dish.

[2] = tested on: Sarcoptes scabiei nits; test: ovicidal activity against scabies eggs (hatching rate)
Experimental: To determine the ovicidal activity of Manuka oil and its fraction, dilutions to 2.5% and 5% were made in olive oil. […] Six independent experiments were conducted on separate days.

SMILES	Mean survival time [1] [min]	Percentage inhibition, Day 4 ([2]; Day 4) [%]	Percentage inhibition, Day 8 ([2]; Day 8) [%]	ovicidal activity (in words) ([2]; nymph emergence, Table 2)
CC1(C)C(C=C(Cl)Cl)C1C(=O)OCc1cccc(Oc2ccccc2)c1 (stereo not shown) [Permethrin, permethrin]	56.4			
CC[C@H](C)[C@H]1O[C@]2(CC[C@@H]1C)C[C@@H]1C[C@@H](C/C=C(\C)[C@@H](O[C@H]3C[C@H](OC)[C@@H](O[C@H]4C[C@H](OC)[C@@H](O)[C@H](C)O4)[C@H](C)O3)[C@@H](C)/C=C/C=C3\CO[C@@H]4[C@H](O)C(C)=C[C@@H](C(=O)O1)[C@]34O)O2 [Ivermectin (100 μ/μL), ivermectin]		12.4 ± 5.0	9.8 ± 4.8	poor ovicidal activity
